Experimental data taken from patent US20210046106A1, “METHODS OF TREATING CANCER WITH ANDROGEN DEPRIVATION THERAPY IN COMBINATION WITH AN INHIBITOR OF THE SP1 TRANSCRIPTION FACTOR” (The Board of Trustees of the Leland Stanford Junior …, priority 2019, published 2021).

System: AR and PSA
Assay: NAC pretreatment and down-regulation of AR and PSA in LAPC-4 cells
Type: cell-based
Details: 10 mmol/L NAC 24 h pretreatment

CC(=O)N[C@@H](CS)C(=O)O [NAC, N-acetylcysteine]
effect of NAC on methylseleninic acid (MSeA)-induced down-regulation of the AR and PSA (then 10 μmol/L MSeA 24 h): does not inhibit | effect of NAC on selenite-induced down-regulation of the AR and PSA (then selenite 24 h): inhibits
